# Test results: patent publication US6838084B1, “Cytotoxic T-cell epitopes of the papilloma virus l1-protein and use thereof in diagnosis and therapy” (priority 1999, dated 2005)
# Like-named read-outs stand apart in the source and are kept apart here.
# Tests used:
# CVLP-stimulated T cells [1] = experiment: Restimulation of CVLP-stimulated T cells, HLA A1-positive donor, 20 mer peptides (γ-interferon FACScan); type: cell-based, human; conditions: for restimulation of CVLP-stimulated T cells (CD8-positive T cells reactive by γ-interferon expression): PBMCs with 10 μg/ml peptide, HLA A1-positive donor, FIG. 4
# Experimental: (§1) The name of the particular peptide with which the PBMCs were loaded is listed from left to right. “None” represents PBMCs which were incubated only with buffer.
# Human T cells (4×10^5) of an HLA A1-positive donor were stimulated with HPV16 L1ΔC·E71-55 CVLPs at 37° C. for 5 weeks with weekly addition of 1 μg/ml CVLPs and 10^5 antigen-presenting cells (irradiated PMBCs), and harvested. The cells were then restimulated in 100 μl of medium at 37° C. with 10 μg/ml of the peptides listed along the X axis of FIG. 4 in the presence of 10 IU/ml IL2. Cells incubated only with buffer served as a negative control.
# (§2) After one hour, 1 μl of Monensin (300 μM) was added. The cells were incubated at 37° C. for a further 5 hours. The cells were then fixed and permeabilized, and stained with α-hum CD8/PE, with α-hum CD4/Cychrome and with α-hum γ-interferon/FITC. The cells were examined in a FACScan calibur with respect to their label and the data were analyzed with the aid of Cellquest software.
# CVLP-stimulated T cells [2] = experiment: Restimulation of CVLP-stimulated T cells, non-HLA-classified donor, 20 mer peptides (γ-interferon FACScan); type: cell-based, human; conditions: for restimulation of CVLP-stimulated T cells (CD4-positive T cells reactive by γ-interferon expression): PBMCs with 10 μg/ml peptide, non-HLA-classified donor, FIG. 5; for Epitop-Information (epitope type): Table 2
# Experimental: as §1
# Human T cells (4×10^5) of a non-HLA-classified donor were stimulated with HPV16 L1ΔC·E71-55 CVLPs at 37° C. for 6 weeks with weekly addition of 1 μg/ml CVLPs and 10^5 antigen-presenting cells (irradiated PMBCs), and harvested. The cells were then restimulated in 100 μl of medium at 37° C. with 10 μg/ml of the peptides listed along the X axis of FIG. 5 in the presence of 10 IU/ml IL2. Cells incubated only with buffer served as a negative control.
# as §2
# HLA A1 molecules = conditions: Kast et al. (1994) Journal of Immunology 152, 3904-3912, cited from earlier work
# CVLP-stimulated T cells [3] = experiment: Restimulation of CVLP-stimulated T cells, HLA A2.01-positive donor (γ-interferon FACScan); type: cell-based, human; conditions: PBMCs incubated with 10 μg/ml antigen, FIG. 3
# Experimental: The content of T cell-specific CD3 for each experiment is listed from left to right and the content of human γ interferon which is specific for activated cells is listed from bottom to top.
# Human T cells (4×10^5) of an HLA A2.01-positive donor were stimulated with HPV16 LlΔC·E71-55 CVLPs at 37° C. for 8 weeks with weekly addition of 1 μg/ml CVLPs and 10^5 antigen-presenting cells (irradiated PMBCs), and harvested. The cells were then restimulated in 100 μl of medium at 37° C. with 10 μg/ml various antigens in the presence of 10 IU/ml IL2 and 0.5 μg/ml α-human CD28: • a) with CVLP-incubated PBMCs overnight • b) with L1 2022 peptide-incubated PBMCs overnight • c) with L1 2025 peptide (control peptide)incubated PBMCs overnight
# After one hour, 1 μl of Golgi Plug was added. The cells were incubated at 37° C. for a further 5 hours. The cells were then fixed and permeabilized, and stained with α-hum CD3/PE, with α-hum CD4/Cychrome and with α-hum γ-interferon/FITC. The cells were examined in a FACScan calibur with respect to their label and the data were analyzed with the aid of Cellquest software.
# [4] = target: T1, MHC-1 complexes of T2 cells (Homo sapiens, UniProt P04439, I119V/I121R/I166T/I218V/L300P/L318F/N151K/N90K/P208A/P217A/Q86G/Q94H/R138H/R169H/T345S); type: binding; conditions: 0, 10 or 100 μg/ml peptide overnight; BB7.2 antibody, FACS; FIG. 2
# T1 construct: The unloaded MHC-1 molecules which are nevertheless present on the cell surface; host or cells: T2 cells
# CVLP-specific T cells = experiment: Peptide-specific TNFα secretion by CVLP-stimulated T cells (WEHI cell/MTT readout); type: cell-based, human; conditions: PMBC + 10 μg/ml peptide, overnight, 10 IU/ml IL-2; HLA A2.01-positive donor; FIG. 1
# Source text: T cells stimulated by specific, antigen-presenting PBLs release TNFα. This induces apoptosis in WEHI cells so that these cells are no longer able to process MTT into a brownish dye. Low absorption means low dye production and thus many apoptotic cells which had thus been exposed to a lot of TNFα so that the corresponding T cells had been stimulated. Thus, stimulation of T cells improves with decreasing absorption at 595 nm for a particular antigen.
# Human T cells (4×10^5) of an HLA A2.01-positive donor were stimulated with HPV16 L1ΔC·E71-55 CVLPs at 37° C. for 8 weeks with weekly addition of 1 μg/ml CVLPs, 10^5 irradiated peripheral blood mononuclear cells (PMBCs) and 10 IU/ml IL-2, and harvested.
# The cells were stimulated in 100 μl of medium at 37° C. overnight with different antigens (PMBC+E7 peptide; PMBC+HPV16 L1αC·E71-55 (CVLP); PMBC+5104, 5105, 5106, 5107, 5108, 5109, 5112, 5113, 10 μg/ml each) in the presence of 10 IU/ml IL-2. During this time, stimulated cells produce TNFα.
# The following day, 50 μl of supernatant were removed, frozen, thawed again (in order to destroy possibly coremoved cells) and added to 50 μl of a cell suspension containing 0.9×10^6 WEHI cells, 2 μg/ml actinomycin D and 400 mM LiCl. The cells were incubated at 37° C. for 24 h. During this time, TNFα (if present in the supernatant) induces apoptosis of WEHI cells. Addition of 50 μl of a 2.5 mg/ml MTT solution in PBS stained non-apoptotic cells brown within three hours, whereas apoptotic cells remained yellow. All cells were lysed by adding 100 μl of lysis buffer (34% N,N-dimethylformamide, 20% sodium dodecyl sulfate) and incubating at 37° for at least 6 hours so that the dyes were released. Finally, absorption of the solution was measured at 595 nm.
# Low absorption means low dye production and thus many apoptotic cells which had thus been exposed to a lot of TNFα so that the corresponding T cells had been stimulated. Thus, T-cell stimulation improved with decreasing absorption at 595 nm.
sequence,measurement,setting,value
AEPDRAHYNIVTFCCXCDST (AEPDRAHYNIVTFCCKCDST; Human papillomavirus type 16) [Peptide 48],restimulation of CVLP-stimulated T cells (CD8-positive T cells reactive by γ-interferon expression),CVLP-stimulated T cells [1],effected restimulation of CVLP-stimulated T cells
ASSNYFPTPSGSMVTSDAQI [Peptide 27],restimulation of CVLP-stimulated T cells (CD4-positive T cells reactive by γ-interferon expression),CVLP-stimulated T cells [2],effected restimulation of CVLP-stimulated T cells
same,Epitop-Information (epitope type),CVLP-stimulated T cells [2],T-helper epitope
EEDEIDGPAGQAEPDRAHYN (Human papillomavirus type 16) [Peptide 47],restimulation of CVLP-stimulated T cells (CD8-positive T cells reactive by γ-interferon expression),CVLP-stimulated T cells [1],effected restimulation of CVLP-stimulated T cells
ETTDLYCY (Human papillomavirus type 16) [peptide contained in peptide 45],binding to HLA A1 molecules,HLA A1 molecules,described as HLA A1-binding peptide
same,binding to HLA A1 molecules,HLA A1 molecules; listed as E7 peptide 45,can bind to HLA A1 molecules
GLQYRVFRI (Human papillomavirus type 16) [Peptide 2025],"restimulation of CVLP-stimulated T cells (γ interferon, CD3)",CVLP-stimulated T cells [3],"not control peptide-incubated PBMCs, effected restimulation"
HLFNRAGTV (Human papillomavirus type 16) [Peptide 5107],"MHC molecules on the cell surface of T2 cells (fluorescence), indicating binding to MHC molecules",[4],significantly more MHC molecules on the cell surface
same,"stimulating CVLP-specific T cells (TNFα secretion, absorption at 595 nm)",CVLP-specific T cells,capable of stimulating CVLP-specific T cells
ICWGNQLFV (Human papillomavirus type 16) [Peptide 2022],"MHC molecules on the cell surface of T2 cells (fluorescence), indicating binding to MHC molecules",[4],significantly more MHC molecules on the cell surface
same,"restimulation of CVLP-stimulated T cells (γ interferon, CD3)",CVLP-stimulated T cells [3],effected restimulation of CVLP-stimulated T cells
ILEDWNFGL (Human papillomavirus type 16) [Peptide 5112],"MHC molecules on the cell surface of T2 cells (fluorescence), indicating binding to MHC molecules",[4],significantly more MHC molecules on the cell surface
same,"stimulating CVLP-specific T cells (TNFα secretion, absorption at 595 nm)",CVLP-specific T cells,capable of stimulating CVLP-specific T cells
ILVPKVSGL (Human papillomavirus type 16) [Peptide 5104],"stimulating CVLP-specific T cells (TNFα secretion, absorption at 595 nm)",CVLP-specific T cells,capable of stimulating CVLP-specific T cells
MHGDTPTLH (Human papillomavirus type 16) [9 mer contained in peptide 43],binding to HLA A1 molecules,HLA A1 molecules,described as HLA A1-binding peptides
same,binding to HLA A1 molecules,HLA A1 molecules; listed as E7 peptide 43,can bind to HLA A1 molecules
NLASSNYFPT (Human papillomavirus type 16) [Peptide 2017],"MHC molecules on the cell surface of T2 cells (fluorescence), indicating binding to MHC molecules",[4],significantly more MHC molecules on the cell surface
PLGRKFLLQAGMHGDTPTLH (Human papillomavirus type 16) [Peptide 43],restimulation of CVLP-stimulated T cells (CD8-positive T cells reactive by γ-interferon expression),CVLP-stimulated T cells [1],effected restimulation of CVLP-stimulated T cells
same,Epitop-Information (HLA restriction),CVLP-stimulated T cells [1]; Table 2,HLA A1 restr.
same,Epitop-Information (epitope type),CVLP-stimulated T cells [1]; Table 2,cytotoxic epitope
QAEPDRAHYN (Human papillomavirus type 16) [10 mer contained in overlapping peptides 47 and 48],binding to HLA A1 molecules,HLA A1 molecules,described as HLA A1-binding peptides
same,binding to HLA A1 molecules,HLA A1 molecules; listed as E7 peptide 47/48,can bind to HLA A1 molecules
RLVWACVGV (Human papillomavirus type 16) [Peptide 5106],"MHC molecules on the cell surface of T2 cells (fluorescence), indicating binding to MHC molecules",[4],significantly more MHC molecules on the cell surface
same,"stimulating CVLP-specific T cells (TNFα secretion, absorption at 595 nm)",CVLP-specific T cells,capable of stimulating CVLP-specific T cells
SLWLPSEATVYL [Peptide 2016],"MHC molecules on the cell surface of T2 cells (fluorescence), indicating binding to MHC molecules",[4],significantly more MHC molecules on the cell surface
SMVTSDAQIFNKPYWLQRAQ [Peptide 28],restimulation of CVLP-stimulated T cells (CD4-positive T cells reactive by γ-interferon expression),CVLP-stimulated T cells [2],effected restimulation of CVLP-stimulated T cells
same,Epitop-Information (epitope type),CVLP-stimulated T cells [2],T-helper epitope
TLQANKSEV (Human papillomavirus type 16) [Peptide 5109],"MHC molecules on the cell surface of T2 cells (fluorescence), indicating binding to MHC molecules",[4],significantly more MHC molecules on the cell surface
same,"stimulating CVLP-specific T cells (TNFα secretion, absorption at 595 nm)",CVLP-specific T cells,capable of stimulating CVLP-specific T cells
TLTADVMTYI (Human papillomavirus type 16) [Peptide 2018],"MHC molecules on the cell surface of T2 cells (fluorescence), indicating binding to MHC molecules",[4],significantly more MHC molecules on the cell surface
YDLQFIFQL (Human papillomavirus type 16) [Peptide 2020],"MHC molecules on the cell surface of T2 cells (fluorescence), indicating binding to MHC molecules",[4],significantly more MHC molecules on the cell surface
YLPPVPVSKV (Human papillomavirus type 16) [Peptide 2019],"MHC molecules on the cell surface of T2 cells (fluorescence), indicating binding to MHC molecules",[4],significantly more MHC molecules on the cell surface
YLRREQMFV (Human papillomavirus type 16) [Peptide 5108],"stimulating CVLP-specific T cells (TNFα secretion, absorption at 595 nm)",CVLP-specific T cells,capable of stimulating CVLP-specific T cells
